Assay results as given in publication PMC9027920, “Development of New Thiophene-Containing Triaryl Pyrazoline Derivatives as PI3Kγ Inhibitors” (Molecules, 2022).
Values belong to the compound of their own block, whether it stands above or below them.

Legend:
PI3Kα = molecular target: T1, PI3Kα (Homo sapiens, UniProt P42336); assay: competitive fluorescence polarization kinase activity assay, PI3Kα; type: biochemical; details: fluorescence polarization kinase kit
T1 construct: purchased Perkin–Elmer
From the text: (§1) Initially, we directly tested the inhibition potency of the synthesized compounds on PI3K by using competitive fluorescence polarization kinase kits, as mentioned in previous investigations. […] According to the significance and research maturity of the isoforms as referenced, the PI3Kα and PI3Kγ isoforms were preliminarily included here.
(§2) The competitive fluorescence polarization kinase activity assay was used to test the inhibition potency on PI3K, as mentioned in previous investigations. In general, following the instruction of the Kit (Perkin–Elmer, Waltham, MA, USA), the 10 μL scale of PI3K activity reaction was conducted with the substrate diC8-PI(4,5)P2 in a solution containing 2.5 mM MgCl2, 5 mM HEPES, […] and 10 mM DTT at pH 7.0. Into the 10 μL reaction wells with 50 ng enzyme and […], different concentrations of the tested compounds were added, respectively. The mixture was incubated at room temperature for 3 h, and the reactions were then quenched. Afterwards, the phosphoinositide binding protein and the fluorescent dye-labeled phosphoinositide tracer were added in sequence. In the dark environment in 384-well black nonbinding plates (Corning, Corning, NY, USA), the further incubation lasted for 1 h. With appropriate filters, the polarization values of the corresponding dye were recorded to calculate the enzymatic activity of PI3K in this reacting procedure. This assay was universal for evaluating the activity of different PI3K isoforms.

PI3Kγ = molecular target: T2, PI3Kγ (Homo sapiens, UniProt P48736); assay: competitive fluorescence polarization kinase activity assay, PI3Kγ; type: biochemical; details: for IC50: fluorescence polarization kinase kit; for selectivity index: ratio of the IC50 values for PI3Kα and PI3Kγ
T2 construct: purchased Perkin–Elmer
From the text: as §1, §2

[1] = cytotoxicity, MTT, L02 cells; type: cell-based; details: human, L02 cells (human normal hepatocyte line)
Experimental: (§3) In this section, the anti-proliferation activity of the synthesized compounds 3a–3t was evaluated. Herein, HeLa (human epithelial cervical cancer cell line), HepG2 (human hepatoellular carcinoma cell line) and L02 (human normal hepatocyte line) cells were used. According to the affection on L02 cells, most of the tested compounds were low-toxic. […] Basically, many of the compounds in this series could inhibit the growth of HeLa and HepG2 cells effectively. The anti-proliferation inhibitory activity and the enzymatic inhibition potency indicated the consistent tendencies; the SAR of the observed anti-proliferation activity was also similar to that of the enzymatic inhibition, especially that of PI3Kγ inhibition; thus, the cellular inhibition might be caused by the effect on PI3K. […] Thus, HepG2 cells were selected to conduct further investigations at the protein level.
(§4) In this section, the cells included HeLa (human epithelial cervical cancer cell line), HepG2 (human hepatocellular cancer cell line) and L02 (human normal hepatocyte line) to evaluate the anti-proliferation activity of the synthesized compounds. The cells were cultured in Dulbecco’s modified eagle medium (DMEM, Hyclone) with the addition of 10% fetal bovine serum (FBS, BI), 2 mmol/L L-glutamine, 100 units/mL penicillin-streptomycin (Sigma-Aldrich, Saint Louis, MO, USA), […] (Hyclone, Logan, UT, USA). The environment was 5% CO2 contained atmosphere at 37 °C. The tests of anti-proliferative activity were conducted under a standard method with the typical dye 3-(4,5-dimethylthiazol-2-yl)-2,5-diphenyltetrazolium bromide (MTT) in triplicate. The LX300 Epson Diagnostic micro-plate reader (Nagano, Japan) was used to record the absorbance at 570 nm (OD570).

[2] = system: HeLa (human epithelial cervical cancer cell line) cells; assay: anti-proliferation assay, MTT, HeLa cells; type: cell-based
Experimental: as §3, §4

[3] = system: HepG2 (human hepatocellular cancer cell line) cells; assay: anti-proliferation assay, MTT, HepG2 cells; type: cell-based; details: read-out: GI50 HepG2γ
Experimental: as §3, §4

[4] = system: PI3K-mediated Akt phosphorylation in HepG2 cells; assay: Western blot of Akt and p-Akt in HepG2 cells; type: cell-based, human; details: 24 h, 0, 0.25, 0.50, 1.00 μM, with increasing concentration
Experimental: For the evaluation of PI3Kγ activity, the downstream signal of PI3Kγ should be checked. Commonly, in the PI3K-Akt-mTOR pathway, the activation of PI3K mediated the phosphorylation of Akt and then triggered the following biological events. Herein, Western blot was conducted to visualize the expression levels of Akt and p-Akt (phosphorylated Akt) in HepG2 cells after incubation with various concentrations of the top hit 3s (Figure 2). GAPDH was used as the internal reference to guarantee cell status. […] This meant that compound 3s has the potential to cause dose-dependent blocking on the PI3K-mediated Akt phosphorylation.
According to the results of the anti-proliferation assay, HepG2 cells were chosen to be incubated with the compound 3s for 24 h. The cells were then trypsinized and collected. Afterwards, the extracting of the total proteins was conducted with a 1 × RIPA lysis buffer (1% NP-40, 50 mM Tris-HCl, 150 mM NaCl, 0.25% deoxycholic acid, 1 mM EDTA containing protease inhibitors PMSF, pH 7.4,) (Amresco, Solon, OH, USA). […]
Figure 2 (A) The expression levels of Akt, phosphorylated Akt (p-Akt) and GAPDH in HepG2 cells incubated with various concentrations of compound 3s (0, 0.25, 0.50, 1.00 μM); (B) Quantitation analysis of the p-Akt level. Data were expressed as Mean ± SD (n = 3). * p < 0.05, ** p < 0.01 and *** p < 0.005 vs. the control.

HCT-116 cells = system: HCT-116 cells; design: method as in doi:10.1134/S1068162020030061; details: cited from earlier work
CACO-2 cells = system: CACO-2 cells; design: method as in doi:10.1134/S1068162020030061; details: cited from earlier work
BHK cells = system: BHK cells; design: method as in doi:10.1134/S1068162020030061; details: cited from earlier work

T1 sequence (P42336 whole entry, species assumed): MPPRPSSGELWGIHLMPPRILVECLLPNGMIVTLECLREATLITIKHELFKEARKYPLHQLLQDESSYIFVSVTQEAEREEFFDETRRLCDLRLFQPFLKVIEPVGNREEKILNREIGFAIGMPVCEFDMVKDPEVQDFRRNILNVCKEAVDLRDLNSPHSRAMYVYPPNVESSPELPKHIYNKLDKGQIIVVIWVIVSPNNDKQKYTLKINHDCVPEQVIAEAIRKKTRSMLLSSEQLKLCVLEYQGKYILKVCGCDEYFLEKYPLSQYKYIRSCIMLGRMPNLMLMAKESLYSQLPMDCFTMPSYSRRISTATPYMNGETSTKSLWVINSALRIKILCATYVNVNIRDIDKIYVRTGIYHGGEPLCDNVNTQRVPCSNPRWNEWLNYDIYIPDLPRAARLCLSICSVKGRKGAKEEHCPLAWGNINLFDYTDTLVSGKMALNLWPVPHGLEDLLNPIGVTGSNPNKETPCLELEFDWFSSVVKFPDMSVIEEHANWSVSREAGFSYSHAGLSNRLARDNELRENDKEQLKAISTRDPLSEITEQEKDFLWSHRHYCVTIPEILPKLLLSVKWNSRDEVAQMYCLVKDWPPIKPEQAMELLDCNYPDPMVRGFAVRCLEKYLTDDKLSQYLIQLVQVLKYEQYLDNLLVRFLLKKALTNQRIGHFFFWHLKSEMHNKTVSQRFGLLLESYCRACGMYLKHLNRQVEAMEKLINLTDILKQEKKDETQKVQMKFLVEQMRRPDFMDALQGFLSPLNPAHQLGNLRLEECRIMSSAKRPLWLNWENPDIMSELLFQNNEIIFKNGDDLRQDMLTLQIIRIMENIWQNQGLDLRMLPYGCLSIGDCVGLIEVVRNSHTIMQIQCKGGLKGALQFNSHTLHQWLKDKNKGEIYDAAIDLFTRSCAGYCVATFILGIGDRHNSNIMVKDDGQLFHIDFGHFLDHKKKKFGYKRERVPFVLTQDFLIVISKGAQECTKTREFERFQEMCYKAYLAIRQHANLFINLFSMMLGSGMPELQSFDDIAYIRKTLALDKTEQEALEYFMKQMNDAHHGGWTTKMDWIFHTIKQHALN
T1 sequence (P27986 whole entry partner, species assumed): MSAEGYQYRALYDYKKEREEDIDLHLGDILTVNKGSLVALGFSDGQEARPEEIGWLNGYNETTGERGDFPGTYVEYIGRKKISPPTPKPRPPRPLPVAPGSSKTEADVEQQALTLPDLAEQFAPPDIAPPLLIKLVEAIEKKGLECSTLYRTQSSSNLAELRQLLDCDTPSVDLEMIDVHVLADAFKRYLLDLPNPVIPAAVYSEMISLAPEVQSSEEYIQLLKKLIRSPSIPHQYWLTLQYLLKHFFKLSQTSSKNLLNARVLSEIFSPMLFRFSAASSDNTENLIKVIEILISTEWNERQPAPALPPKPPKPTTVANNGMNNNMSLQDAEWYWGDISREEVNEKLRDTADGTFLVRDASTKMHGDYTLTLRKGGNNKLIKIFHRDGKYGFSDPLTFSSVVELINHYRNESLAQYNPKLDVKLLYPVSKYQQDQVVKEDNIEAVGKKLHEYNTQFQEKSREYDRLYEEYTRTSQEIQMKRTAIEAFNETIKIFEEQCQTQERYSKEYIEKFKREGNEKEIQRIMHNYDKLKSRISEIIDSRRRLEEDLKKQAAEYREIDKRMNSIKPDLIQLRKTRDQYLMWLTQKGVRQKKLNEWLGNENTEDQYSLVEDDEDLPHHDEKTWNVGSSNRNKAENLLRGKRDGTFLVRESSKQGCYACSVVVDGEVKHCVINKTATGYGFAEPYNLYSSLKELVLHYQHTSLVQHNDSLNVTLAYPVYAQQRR
T2 sequence (P48736 whole entry, species assumed): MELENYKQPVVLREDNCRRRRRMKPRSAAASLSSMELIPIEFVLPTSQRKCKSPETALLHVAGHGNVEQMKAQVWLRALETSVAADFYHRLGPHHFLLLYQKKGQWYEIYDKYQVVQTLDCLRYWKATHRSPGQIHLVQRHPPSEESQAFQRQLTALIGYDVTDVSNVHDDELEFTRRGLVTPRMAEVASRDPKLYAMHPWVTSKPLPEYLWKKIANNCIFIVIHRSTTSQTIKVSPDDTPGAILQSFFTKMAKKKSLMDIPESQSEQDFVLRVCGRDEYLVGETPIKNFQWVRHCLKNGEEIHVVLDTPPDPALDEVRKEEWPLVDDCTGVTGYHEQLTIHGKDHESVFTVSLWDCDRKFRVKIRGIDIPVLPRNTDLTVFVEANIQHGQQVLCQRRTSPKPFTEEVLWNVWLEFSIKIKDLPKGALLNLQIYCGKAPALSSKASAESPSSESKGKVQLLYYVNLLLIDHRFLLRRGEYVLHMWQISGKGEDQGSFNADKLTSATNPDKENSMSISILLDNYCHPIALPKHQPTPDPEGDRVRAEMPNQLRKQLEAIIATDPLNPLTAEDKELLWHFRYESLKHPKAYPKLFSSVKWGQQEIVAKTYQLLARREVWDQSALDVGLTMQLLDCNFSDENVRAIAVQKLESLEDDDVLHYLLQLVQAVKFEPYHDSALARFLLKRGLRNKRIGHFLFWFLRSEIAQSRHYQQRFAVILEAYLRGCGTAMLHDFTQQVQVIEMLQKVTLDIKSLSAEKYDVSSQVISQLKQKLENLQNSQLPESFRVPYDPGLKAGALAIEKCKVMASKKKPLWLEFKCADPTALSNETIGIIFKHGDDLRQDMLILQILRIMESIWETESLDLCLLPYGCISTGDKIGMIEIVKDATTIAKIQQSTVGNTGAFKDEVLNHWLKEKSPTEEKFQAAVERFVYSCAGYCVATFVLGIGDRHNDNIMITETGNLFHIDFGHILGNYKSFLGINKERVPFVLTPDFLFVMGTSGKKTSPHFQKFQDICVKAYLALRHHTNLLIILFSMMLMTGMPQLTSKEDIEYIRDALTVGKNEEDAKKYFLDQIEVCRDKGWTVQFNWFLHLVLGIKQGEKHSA

IC50 (PI3Kα): 26.6 ± 1.01 µM
IC50 (PI3Kγ): 0.57 ± 0.044 µM
selectivity index (PI3Kγ): 46.7
GI50 [2]: 23.7 ± 1.2 µM
GI50 [3]: 15.1 ± 0.42 µM
melting point: 53 to 55 °C
SMILES: COc1ccc(C2=NN(C(=O)c3ccc(OC)c(OC)c3)C(c3cccs3)C2)cc1 (centres unmarked) [3f, (3,4-Dimethoxyphenyl)(3-(4-methoxyphenyl)-5-(thiophen-2-yl)-4,5-dihydro-1H-pyrazol-1-yl)methanone]
CC50 [1]: 112 ± 8.3 µM

IC50 (PI3Kα): 12 ± 1.1 µM
IC50 (PI3Kγ): 1.79 ± 0.049 µM
GI50 [2]: 11.1 ± 1.2 µM
GI50 [3]: 8.85 ± 0.31 µM
melting point: 149 to 151 °C
SMILES: COc1ccc(C(=O)N2N=C(c3ccc4ccccc4c3)CC2c2cccs2)cc1OC (centres unmarked) [3n, (3,4-Dimethoxyphenyl)(3-(naphthalen-2-yl)-5-(thiophen-2-yl)-4,5-dihydro-1H-pyrazol-1-yl)methanone]
CC50 [1]: 62.6 ± 2.6 µM

IC50 (PI3Kα): > 100 µM
IC50 (PI3Kγ): 7.48 ± 0.22 µM
GI50 [2]: 109 ± 5.8 µM
GI50 [3]: 61.1 ± 3.2 µM
melting point: 141 to 143 °C
SMILES: COc1ccc(C(=O)N2N=C(c3ccccc3)CC2c2cccs2)cc1OC (centres unmarked) [3a, (3,4-Dimethoxyphenyl)(3-phenyl-5-(thiophen-2-yl)-4,5-dihydro-1H-pyrazol-1-yl)methanone]
CC50 [1]: 174 ± 10 µM

IC50 (PI3Kα): 64.4 ± 3.6 µM
IC50 (PI3Kγ): 18.1 ± 1.7 µM
GI50 [2]: 61.3 ± 2.3 µM
GI50 [3]: 53.3 ± 1.9 µM
melting point: 63 to 65 °C
SMILES: COc1ccc(C(=O)N2N=C(c3ccc(SC)cc3)CC2c2cccs2)cc1OC (centres unmarked) [3h, (3-(4-((λ^1-Sulfanyl)-λ^5-methyl)phenyl)-5-(thiophen-2-yl)-4,5-dihydro-1H-pyrazol-1-yl) (3,4-dimethoxyphenyl)methanone]
CC50 [1]: 180 ± 4.6 µM

IC50 (PI3Kα): 5.24 ± 0.13 µM
IC50 (PI3Kγ): 0.43 ± 0.036 µM
selectivity index (PI3Kγ): 12.2
GI50 [2]: 4.72 ± 0.12 µM
GI50 [3]: 4.22 ± 0.13 µM
melting point: 127 to 128 °C
SMILES: COc1ccc(C(=O)N2N=C(c3ccc(OC)c(OC)c3)CC2c2cccs2)cc1OC (centres unmarked) [3q, (3,4-Dimethoxyphenyl)(3-(3,4-dimethoxyphenyl)-5-(thiophen-2-yl)-4,5-dihydro-1H-pyrazol-1-yl)methanone]
CC50 [1]: 41.3 ± 2.6 µM

IC50 (PI3Kα): 78.7 ± 4 µM
IC50 (PI3Kγ): 2.22 ± 0.072 µM
GI50 [2]: 57.1 ± 2.6 µM
GI50 [3]: 42.6 ± 1.9 µM
melting point: 124 to 126 °C
SMILES: COc1ccc(C(=O)N2N=C(c3cccc(Br)c3)CC2c2cccs2)cc1OC (centres unmarked) [3d, (3-(3-Bromophenyl)-5-(thiophen-2-yl)-4,5-dihydro-1H-pyrazol-1-yl)(3,4-dimethoxyphenyl)methanone]
CC50 [1]: 120 ± 4.7 µM

Second part, the compound before the results:

SMILES: COc1ccc(C(=O)N2N=C(c3ccc4c(c3)OCO4)CC2c2cccs2)cc1OC (centres unmarked) [3s, (3-(Benzo[d][1,3]dioxol-5-yl)-5-(thiophen-2-yl)-4,5-dihydro-1H-pyrazol-1-yl)(3,4-dimethoxyphenyl)methanone]
IC50 (PI3Kα): 42.6 ± 2.9 µM
IC50 (PI3Kγ): 0.066 ± 0.005 µM
selectivity index (PI3Kγ): 645
CC50 [1]: 181 ± 9 µM
GI50 [2]: 13.7 ± 1.1 µM
GI50 [3]: 12.9 ± 1.3 µM
Akt level [4]: almost remained unchanged
p-Akt level [4]: obvious decrease
melting point: 138 to 140 °C

SMILES: COc1ccc(C(=O)N2N=C(c3cccc(F)c3)CC2c2cccs2)cc1OC (centres unmarked) [3c, (3,4-Dimethoxyphenyl)(3-(3-fluorophenyl)-5-(thiophen-2-yl)-4,5-dihydro-1H-pyrazol-1-yl)methanone]
IC50 (PI3Kα): 30.9 ± 1.3 µM
IC50 (PI3Kγ): 4.21 ± 0.072 µM
CC50 [1]: 94.5 ± 4.3 µM
GI50 [2]: 26.3 ± 1.7 µM
GI50 [3]: 20.4 ± 2 µM
melting point: 50 to 51 °C

SMILES: COc1ccc(C(=O)N2N=C(c3ccc(OC)c4ccccc34)CC2c2cccs2)cc1OC (centres unmarked) [3o, (3,4-Dimethoxyphenyl)(3-(4-methoxynaphthalen-1-yl)-5-(thiophen-2-yl)-4,5-dihydro-1H-pyrazol-1-yl)methanone]
IC50 (PI3Kα): 8.81 ± 0.17 µM
IC50 (PI3Kγ): 9.91 ± 0.26 µM
CC50 [1]: 137 ± 4.7 µM
GI50 [2]: 18.1 ± 0.85 µM
GI50 [3]: 16.9 ± 0.36 µM
melting point: 72 to 74 °C

SMILES: COc1ccc(C(=O)N2N=C(c3ccc(-c4ccccc4)cc3)CC2c2cccs2)cc1OC (centres unmarked) [3j, (3-([1,1’-Biphenyl]-4-yl)-5-(thiophen-2-yl)-4,5-dihydro-1H-pyrazol-1-yl)(3,4-dimethoxyphenyl)methanone]
IC50 (PI3Kα): 3.92 ± 0.064 µM
IC50 (PI3Kγ): > 100 µM
CC50 [1]: 196 ± 10 µM
GI50 [2]: 75.7 ± 2.9 µM
GI50 [3]: 50.6 ± 1 µM
melting point: 154 to 156 °C

SMILES: COc1ccc(C(=O)N2N=C(c3ccc(-c4ccc(Br)cc4)cc3)CC2c2cccs2)cc1OC (centres unmarked) [3k, (3-(4’-Bromo-[1,1’-biphenyl]-4-yl)-5-(thiophen-2-yl)-4,5-dihydro-1H-pyrazol-1-yl)(3,4-dimethoxyphenyl)methanone]
IC50 (PI3Kα): 1.1 ± 0.061 µM
IC50 (PI3Kγ): 42.7 ± 2.6 µM
CC50 [1]: 178 ± 8.7 µM
GI50 [2]: 44.6 ± 2.1 µM
GI50 [3]: 46.6 ± 1.3 µM
melting point: 75 to 77 °C

SMILES: CCOC(=O)c1sc(N2N=C(c3cccs3)CC2c2ccccc2)nc1C (centres unmarked) [ethyl-4-methyl-2-(5-phenyl-3-(thiophen-2-yl)-4,5-dihydropyrazol-1-yl)thiazole-5-carboxylate]
anti-tumor activity (HCT-116 cells): potent anti-tumor activity
anti-tumor activity (CACO-2 cells): potent anti-tumor activity
cytotoxicity (BHK cells): no cytotoxicity
